Assay in all cases: microbe, parasite or virus in culture
Holding throughout (type): cell-based

For one assay, the system named is M. tbc 9449/2007. To be noted: Mycobacterium tuberculosis, read-out: Minimum inhibitory concentrations M. tbc 9449/2007.
In another assay the test system is M. tbc 234/2005. To be noted: Mycobacterium tuberculosis, read-out: Minimum inhibitory concentrations M. tbc 234/2005.
The subject of another assay is M. tbc PRAHA 1. To be noted: Mycobacterium tuberculosis, read-out: Minimum inhibitory concentrations M. tbc PRAHA 1.
The next assay relates to M. tbc PRAHA 4. To be noted: Mycobacterium tuberculosis, read-out: Minimum inhibitory concentrations M. tbc PRAHA 4.
Another assay deals with M. tbc PRAHA 131. To be noted: Mycobacterium tuberculosis, read-out: Minimum inhibitory concentrations M. tbc PRAHA 131.
In assay [1] the test system is four MDR-TB strains and one XDR-TB strain. The settings on record: Mycobacterium tuberculosis, read-out: MIC against resistant M. tuberculosis strains.

The structures appear in SMILES notation. Converted amounts (≈) assume the structure as drawn. Like-named read-outs stand apart in the source and are kept apart here. A value given as a limit tells only on which side of the number the result lay.

Consider `Cc1ccc(CNc2nccnc2C(N)=O)cc1` [Compound 8, 3-[(4-Methylbenzyl)amino]pyrazine-2-carboxamide], for which the MIC is 250 µM (≈ 60.6 µg/mL) with M. tbc 9449/2007 (9449/2007, 336 h); 250 µM (≈ 60.6 µg/mL) with M. tbc 9449/2007 (9449/2007, 504 h); 250 µM (≈ 60.6 µg/mL) in the assay with M. tbc 234/2005 (234/2005, 336 h); 250 µM (≈ 60.6 µg/mL) in the assay on M. tbc 234/2005 (234/2005, 504 h); 250 µM (≈ 60.6 µg/mL) in the assay on M. tbc PRAHA 1 (PRAHA1, 336 h); 250 µM (≈ 60.6 µg/mL) in the assay on M. tbc PRAHA 1 (PRAHA1, 504 h). For the same molecule, the MIC is 250 µM (≈ 60.6 µg/mL) in the assay on M. tbc PRAHA 4 (PRAHA4, 336 h); 250 µM (≈ 60.6 µg/mL) with M. tbc PRAHA 4 (PRAHA4, 504 h); 250 µM (≈ 60.6 µg/mL) in the assay on M. tbc PRAHA 131 (PRAHA131, 336 h); 250 µM (≈ 60.6 µg/mL) with M. tbc PRAHA 131 (PRAHA131, 504 h); 250 µM (≈ 60.6 µg/mL) in assay [1].
`CO[C@H]1/C=C/O[C@@]2(C)Oc3c(C)c(O)c4c(O)c(c(/C=N/N5CCN(C)CC5)c(O)c4c3C2=O)NC(=O)/C(C)=C\C=C\[C@H](C)[C@H](O)[C@@H](C)[C@@H](O)[C@@H](C)[C@H](OC(C)=O)[C@@H]1C` [RFM, rifampicin, reference compound]: the MIC in the assay on M. tbc 9449/2007 (9449/2007, 336 h) is more than 15.6 µM; in the assay on M. tbc 9449/2007 (9449/2007, 504 h), more than 15.6 µM; with M. tbc 234/2005 (234/2005, 336 h), more than 15.6 µM; with M. tbc 234/2005 (234/2005, 504 h) it was more than 15.6 µM; with M. tbc PRAHA 1 (PRAHA1, 336 h) it was more than 15.6 µM; with M. tbc PRAHA 1 (PRAHA1, 504 h), more than 15.6 µM. The MIC in the assay with M. tbc PRAHA 4 (PRAHA4, 336 h) was more than 15.6 µM; with M. tbc PRAHA 4 (PRAHA4, 504 h), more than 15.6 µM; with M. tbc PRAHA 131 (PRAHA131, 336 h), more than 15.6 µM; in the assay with M. tbc PRAHA 131 (PRAHA131, 504 h), more than 15.6 µM.
Consider `NC(=O)c1nccnc1NCc1ccc(N)cc1` [Compound 9, 3-[(4-Aminobenzyl)amino]pyrazine-2-carboxamide], for which the MIC with M. tbc 9449/2007 (9449/2007, 336 h) came to 62.5 µM (≈ 15.2 µg/mL); in the assay with M. tbc 9449/2007 (9449/2007, 504 h) it was 62.5 µM (≈ 15.2 µg/mL); in the assay with M. tbc 234/2005 (234/2005, 336 h), 62.5 µM (≈ 15.2 µg/mL); in the assay with M. tbc 234/2005 (234/2005, 504 h) it was 62.5 µM (≈ 15.2 µg/mL); in the assay on M. tbc PRAHA 1 (PRAHA1, 336 h), 62.5 µM (≈ 15.2 µg/mL); in the assay on M. tbc PRAHA 1 (PRAHA1, 504 h), 62.5 µM (≈ 15.2 µg/mL). The MIC with M. tbc PRAHA 4 (PRAHA4, 336 h) turned out to be 62.5 µM (≈ 15.2 µg/mL); in the assay on M. tbc PRAHA 4 (PRAHA4, 504 h) it was 62.5 µM (≈ 15.2 µg/mL); in the assay with M. tbc PRAHA 131 (PRAHA131, 336 h), 62.5 µM (≈ 15.2 µg/mL); in the assay with M. tbc PRAHA 131 (PRAHA131, 504 h), 125 µM (≈ 30.4 µg/mL); in assay [1] it was 62.5 µM (≈ 15.2 µg/mL).
Regarding `NNC(=O)c1ccncc1` [INH, isoniazid, reference compound], the MIC is 62.5 µM (≈ 8.57 µg/mL) in the assay with M. tbc 9449/2007 (9449/2007, 336 h); 62.5 µM (≈ 8.57 µg/mL) with M. tbc 9449/2007 (9449/2007, 504 h); 15.6 µM (≈ 2.14 µg/mL) in the assay with M. tbc 234/2005 (234/2005, 336 h); 15.6 µM (≈ 2.14 µg/mL) with M. tbc 234/2005 (234/2005, 504 h); 15.6 µM (≈ 2.14 µg/mL) in the assay on M. tbc PRAHA 1 (PRAHA1, 336 h); 15.6 µM (≈ 2.14 µg/mL) in the assay on M. tbc PRAHA 1 (PRAHA1, 504 h). Besides, the MIC with M. tbc PRAHA 4 (PRAHA4, 336 h) stood at 15.6 µM (≈ 2.14 µg/mL); in the assay with M. tbc PRAHA 4 (PRAHA4, 504 h) it was 31.2 µM (≈ 4.29 µg/mL); in the assay on M. tbc PRAHA 131 (PRAHA131, 336 h) it was 15.6 µM (≈ 2.14 µg/mL); in the assay with M. tbc PRAHA 131 (PRAHA131, 504 h), 31.2 µM (≈ 4.29 µg/mL).
